Results published in patent US9328106B2, “Cyclic ether pyrazol-4-yl-heterocyclyl-carboxamide compounds and methods of use” (Genentech, Inc., priority 2012, dated 2016).

Legend:
[1] = molecular target: hERG potassium channel (Homo sapiens (Human), UniProt Q12809); assay: hERG assay (IC50), automated PatchXpress in hERG-expressing HEK-293 cells; assay type: cell-based; conditions: 0.01-100 μM, 5 minutes after adding test article; for IC20 at 5 min: human, HEK-293 cells that express hERG
Experimental: The in vitro potential for hERG potassium channel current inhibition was assessed according to the study site standard procedures (ChanTest, Cleveland, Ohio). In brief, hERG inhibition (% max) was determined in hERG-expressing HEK-293 cells (n=2/concentration) using the automated PatchXpress 7000A system (Molecular Devices, Sunnyvale, Calif.) for 5 minutes after adding the test article.

[2] = molecular target: PIM1 (Homo sapiens (Human), UniProt P11309); assay: biochemical; assay type: biochemical; conditions: 20 pM PIM1, 1 μM FAM-peptide, 10 μM ATP, 90 minutes at room temperature; read-out: PIM1 LC3K (KI)
Chain of PIM1 (P11309 whole entry): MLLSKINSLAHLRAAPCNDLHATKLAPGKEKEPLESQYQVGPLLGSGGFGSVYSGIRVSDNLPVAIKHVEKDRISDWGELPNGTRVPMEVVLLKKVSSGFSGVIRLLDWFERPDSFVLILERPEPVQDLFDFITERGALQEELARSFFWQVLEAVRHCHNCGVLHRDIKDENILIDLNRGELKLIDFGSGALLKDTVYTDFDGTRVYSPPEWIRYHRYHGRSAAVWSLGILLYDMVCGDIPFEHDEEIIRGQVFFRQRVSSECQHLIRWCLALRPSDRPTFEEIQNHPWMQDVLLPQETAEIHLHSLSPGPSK

[3] = tested on: MM1.S (multiple myeloma) cells; assay: In vitro cell proliferation, MM1.S multiple myeloma cells; assay type: cell-based; conditions: Homo sapiens, MM1.S, 72 h, MM1.S cells, 72 hours, CELL TITER GLO; read-out: Prolif MM1S ATP (EC50);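 further: cells cultured in RPMI with 10% FBS and 2 mM L-Glutamine, seeded in 384-well plates, exposed to compound, cell viability measured by luminescence after CellTiter-Glo addition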
Experimental: (§1) BaF3 parental line was obtained from the DSMZ repository. […] Media for BaF3 parental line contained RPMI, 10% FBS, 2 mM L-Glutamine, 2 ng/mL mIL-3. Media for BaF3 PIM1 & 2 lines contained RPMI, 10% FBS, 2 mM L-Glutamine, 250 μg/mL. Media for MM1.S (multiple myeloma cells) line contained RPMI, 10% FBS, 2 mM L-Glutamine.
(§2) BaF3, a murine interleukin-3 dependent pro-B cell line, parental cells, BaF3 PIM1 cells, BaF3 PIM2 cells, and MM1.S (multiple myeloma) cells were seeded at 2 k/well, 5 k/well, 5 k/well, and 10 k/well respectively, in a 384-well plate, at 45 μL/well. Test compound was added at 5 μL/well. BaF3 cells (parental and transfected) were incubated overnight, while MM1.S cells were incubated for 72 hours at 37° C., 5% CO2. CELL TITER GLO® Reagent (Promega) was added at 50 μL/well, the plates were incubated for 30 minutes, and their luminescence read on an HT Analyst. IC50/EC50 values for the test compound were calculated.

[4] = tested on: BaF3 parental cells; assay: In vitro cell proliferation, BaF3 parental line + IL3; assay type: cell-based, murine; conditions: Mus musculus, BaF3, BaF3 parental, mIL-3, incubated overnight, CELL TITER GLO; read-out: Prolif BaF3 IL3 (IC50);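 further: BaF3 parental cells are murine IL-3 dependent pro-B cells grown with 2 ng/mL mIL-3, 384-well format, viability read by luminescence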
[5] = tested on: BaF3 PIM1 cells; assay: In vitro cell proliferation, BaF3 transfected with PIM1; assay type: cell-based, murine; conditions: Mus musculus, BaF3, read-out: Prolif BaF3 PIM1 (IC50), BaF3 PIM1 cells, incubated overnight, CELL TITER GLO;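 further: murine IL-3-dependent pro-B BaF3 cells transfected with PIM1, compound exposure overnight at 37 °C under 5% CO2, viability read as luminescence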
Experimental: as §1, §2

Chain of hERG potassium channel (Q12809 whole entry): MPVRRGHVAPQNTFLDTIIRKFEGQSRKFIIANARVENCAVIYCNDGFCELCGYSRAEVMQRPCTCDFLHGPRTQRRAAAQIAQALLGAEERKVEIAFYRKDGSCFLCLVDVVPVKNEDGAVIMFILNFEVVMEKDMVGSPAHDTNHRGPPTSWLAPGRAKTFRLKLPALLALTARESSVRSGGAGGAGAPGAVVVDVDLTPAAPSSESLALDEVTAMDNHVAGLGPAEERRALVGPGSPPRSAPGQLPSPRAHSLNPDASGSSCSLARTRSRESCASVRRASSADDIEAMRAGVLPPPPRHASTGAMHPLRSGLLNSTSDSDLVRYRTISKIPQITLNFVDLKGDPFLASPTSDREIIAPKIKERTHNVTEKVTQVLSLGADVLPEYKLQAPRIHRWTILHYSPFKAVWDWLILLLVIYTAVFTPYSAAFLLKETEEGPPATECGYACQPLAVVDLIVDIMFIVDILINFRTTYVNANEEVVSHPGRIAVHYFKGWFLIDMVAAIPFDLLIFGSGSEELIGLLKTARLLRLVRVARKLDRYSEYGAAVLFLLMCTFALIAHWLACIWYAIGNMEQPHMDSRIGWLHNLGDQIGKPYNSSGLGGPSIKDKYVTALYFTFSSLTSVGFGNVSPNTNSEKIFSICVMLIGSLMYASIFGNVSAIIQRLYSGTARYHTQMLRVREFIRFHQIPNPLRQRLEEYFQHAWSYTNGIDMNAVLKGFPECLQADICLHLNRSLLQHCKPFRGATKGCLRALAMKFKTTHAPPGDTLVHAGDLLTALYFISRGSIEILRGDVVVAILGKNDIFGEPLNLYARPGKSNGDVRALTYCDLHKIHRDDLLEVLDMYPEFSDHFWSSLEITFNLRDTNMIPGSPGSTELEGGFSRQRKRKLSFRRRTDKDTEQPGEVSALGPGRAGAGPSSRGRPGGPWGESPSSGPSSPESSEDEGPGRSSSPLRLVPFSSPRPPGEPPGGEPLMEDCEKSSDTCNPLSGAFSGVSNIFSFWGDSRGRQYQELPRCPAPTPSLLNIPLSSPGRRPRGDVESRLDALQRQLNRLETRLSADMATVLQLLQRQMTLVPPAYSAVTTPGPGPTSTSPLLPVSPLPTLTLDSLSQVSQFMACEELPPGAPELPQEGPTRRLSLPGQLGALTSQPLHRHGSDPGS

Row | Ki [2] | EC50 [3] | IC50 [5] | Structure (SMILES) | IC50 [1] | IC20 at 5 min [1] | IC50 [4]
1 | 8 pM |  |  | CO[C@H]1CO[C@H](c2c(NC(=O)c3nc(-c4c(F)cccc4F)sc3N)cnn2C)CC[C@H]1N [Example 154, 5-Amino-N-[5-[(2S,5R,6R)-5-amino-6-methoxy-oxepan-2-yl]-1-methyl-pyrazol-4-yl]-2-(2,6-difluorophenyl)thiazole-4-carboxamide] | 9.1 µM | 1600 nM | 
2 | 3.42 pM |  |  | Cn1ncc(NC(=O)c2nc(-c3c(F)cccc3F)sc2N)c1[C@@H]1CC[C@@H](N)[C@H](F)CO1 [Example 177, 5-Amino-N-[5-[(2S,5R,6S)-5-amino-6-fluoro-oxepan-2-yl]-1-methyl-pyrazol-4-yl]-2-(2,6-difluorophenyl)thiazole-4-carboxamide] | 16 µM | 3900 nM | 
3 | 954 pM | 2000 nM | 3.2 µM | Cn1ncc(NC(=O)c2csc(-c3cc(=O)n(C)cc3F)n2)c1[C@@H]1CC[C@@H](N)[C@H](F)CO1 [Example 387, N-(5-((2S,5R,6S)-5-amino-6-fluorooxepan-2-yl)-1-methyl-1H-pyrazol-4-yl)-2-(5-fluoro-1-methyl-2-oxo-1,2-dihydropyridin-4-yl)thiazole-4-carboxamide] |  |  | 8.2 µM
4 |  |  |  | Cn1ncc(NC(=O)c2nc(-c3c(F)cccc3F)sc2N)c1N1CC[C@@H](N)[C@H](F)CC1 [No. 139 of US 2013/0079321, 5-amino-N-(5-((4R,5R)-4-amino-5-fluoroazepan-1-yl)-1-methyl-1H-pyrazol-4-yl)-2-(2,6-difluorophenyl)thiazole-4-carboxamide, reference compound] |  | 700 nM | 
